Molecules are shown by their SMILES. Toxic doses and inconclusive results are not listed.

The results in this text go back to PubChem BioAssay AID248 (DTP/NCI, 2004).

The assay has as its system L1210 leukemia ip in BDF1 mice, survival T/C. In words: NCI In Vivo Anticancer Drug Screen. Data for tumor model L1210 Leukemia (intraperitoneal) in B6D2F1 (BDF1) mice. The settings on record: endpoint: mean survival time, higher = longer survival. Summed up: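 Antitumor effect is assessed in tumor-bearing animals. Survival in the compound arm is compared with a vehicle-dosed control arm and expressed as their quotient.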

Where [1] appears, read: dose: 100.0 mg/kg/injection, schedule: Q04DX003 (ip), vehicle: saline with Tween-80.
[2] abbreviates: dose: 200.0 mg/kg/injection, schedule: Q04DX003 (ip), vehicle: saline with Tween-80.
Setting [3] is: dose: 400.0 mg/kg/injection, schedule: Q04DX003 (ip), vehicle: saline with Tween-80.
[4] abbreviates: dose: 100.0 mg/kg/injection, schedule: Q04DX003 (ip), vehicle: saline.
Where [5] appears, read: dose: 200.0 mg/kg/injection, schedule: Q04DX003 (ip), vehicle: saline.
The mark [6] stands for this setting: dose: 400.0 mg/kg/injection, schedule: Q04DX003 (ip), vehicle: saline.
[7] abbreviates: dose: 50.0 mg/kg/injection, schedule: Q01DX001 (ip), vehicle: carboxymethylcellulose (CMC).
Setting [8] is: dose: 100.0 mg/kg/injection, schedule: Q01DX001 (ip), vehicle: carboxymethylcellulose (CMC).
[9] abbreviates: dose: 200.0 mg/kg/injection, schedule: Q01DX001 (ip), vehicle: carboxymethylcellulose (CMC).
[10] abbreviates: dose: 400.0 mg/kg/injection, schedule: Q01DX001 (ip), vehicle: carboxymethylcellulose (CMC).
Setting [11] is: dose: 100.0 mg/kg/injection, schedule: Q01DX009 (ip), vehicle: saline.
Setting [12] is: dose: 200.0 mg/kg/injection, schedule: Q01DX009 (ip), vehicle: saline.
[13] abbreviates: dose: 100.0 mg/kg/injection, schedule: Q01DX001 (ip), vehicle: saline.
Where [14] appears, read: dose: 200.0 mg/kg/injection, schedule: Q01DX001 (ip), vehicle: saline.
Setting [15] is: dose: 400.0 mg/kg/injection, schedule: Q01DX001 (ip), vehicle: saline.

Regarding `Cc1cc(C)[nH]c(=O)c1`, the T/C is, setting by setting: under setting [1], 109 % of control; under setting [2], 102 % of control; under setting [3], 98 % of control.

As for `COC(=O)CN1C(=O)c2ccccc2C1=O`, the T/C runs as follows: under setting [4], 95 % of control; under setting [5], 101 % of control; under setting [6], 98 % of control.

Turning to `CC(=O)Cc1c[nH]c2ccccc12`, the T/C is, setting by setting: under setting [7], 103 % of control; under setting [8], 97 % of control; (dose: 100.0 mg/kg/injection, schedule: Q04DX002 (ip), vehicle: Klucel (hydroxypropylcellulose) (HPC)) 97 % of control; under setting [9], 106 % of control; (dose: 200.0 mg/kg/injection, schedule: Q04DX002 (ip), vehicle: Klucel (hydroxypropylcellulose) (HPC)) 101 % of control; under setting [10], 103 % of control. Besides, the T/C (dose: 400.0 mg/kg/injection, schedule: Q04DX002 (ip), vehicle: Klucel (hydroxypropylcellulose) (HPC)) is 111 % of control.

Turning to `COc1ccc(NC(=O)Nc2ccc(C3=NCCCN3)cc2)cc1NC(=O)Nc1ccc(C2=NCCCN2)cc1`, the T/C is, setting by setting: (dose: 62.0 mg/kg/injection, schedule: Q01DX Z (ip), vehicle: carboxymethylcellulose (CMC)) 115 % of control; (dose: 62.0 mg/kg/injection, schedule: Q01DX Z (oral), vehicle: carboxymethylcellulose (CMC)) 104 % of control; (dose: 125.0 mg/kg/injection, schedule: Q01DX Z (oral), vehicle: carboxymethylcellulose (CMC)) 98 % of control; (dose: 250.0 mg/kg/injection, schedule: Q01DX Z (ip), vehicle: carboxymethylcellulose (CMC)) 150 % of control; (dose: 250.0 mg/kg/injection, schedule: Q01DX Z (oral), vehicle: carboxymethylcellulose (CMC)) 104 % of control; (dose: 500.0 mg/kg/injection, schedule: Q01DX Z (oral), vehicle: carboxymethylcellulose (CMC)) 100 % of control.

For `O=C(Nc1cc([N+](=O)[O-])ccc1F)Oc1ccc2ccccc2c1`, the T/C reads like this: under setting [11], 111 % of control; under setting [12], 95 % of control; (dose: 400.0 mg/kg/injection, schedule: Q01DX009 (ip), vehicle: saline) 106 % of control.

With `CC1=C2C3OC(=O)C(C)C3C=CC2(C)C(=O)CC1` (configuration not stated), the T/C was 87 % of control under setting [1], 89 % of control under setting [2] and 89 % of control under setting [3].

Consider `CN1CCC=C(COC(=O)C(C)(C)C)C1`, for which the T/C is 92 % of control (dose: 75.0 mg/kg/injection, schedule: Q01DX001 (ip), vehicle: carboxymethylcellulose (CMC)); 87 % of control (dose: 150.0 mg/kg/injection, schedule: Q01DX001 (ip), vehicle: carboxymethylcellulose (CMC)); 95 % of control (dose: 300.0 mg/kg/injection, schedule: Q01DX001 (ip), vehicle: carboxymethylcellulose (CMC)).

Consider `O=C=Nc1ccc(CCc2ccc(N=C=O)cc2)cc1`, for which the T/C is 88 % of control under setting [11]; 93 % of control under setting [4]; 87 % of control under setting [12]; 102 % of control under setting [5]; 106 % of control under setting [6].

In the case of `Cc1ccc2c(n1)Nc1nc(N)[nH]c(=O)c1S2`, the T/C (dose: 12.5 mg/kg/injection, schedule: Q04DX003 (ip), vehicle: carboxymethylcellulose (CMC)) is 97 % of control and the T/C (dose: 25.0 mg/kg/injection, schedule: Q04DX003 (ip), vehicle: carboxymethylcellulose (CMC)) is 97 % of control.

As for `CCOC(=O)c1cn(C2OC(COC(C)=O)C(OC(C)=O)C2OC(C)=O)c2nc(SC)nc(NC(C)=O)c2c1=O` (configuration not stated), the T/C (dose: 100.0 mg/kg/injection, schedule: Q01DX005 (ip), vehicle: saline) is 97 % of control and the T/C (dose: 200.0 mg/kg/injection, schedule: Q01DX005 (ip), vehicle: saline) is 91 % of control.

For the compound `CCCCSc1ncnc2c1ncn2C1CCCCO1` (configuration not stated), the T/C is 102 % of control (dose: 50.0 mg/kg/injection, schedule: Q01DX001 (ip), vehicle: saline); 104 % of control under setting [13]; 94 % of control (dose: 100.0 mg/kg/injection, schedule: Q01DX009 (ip), vehicle: saline sonified); 103 % of control (dose: 100.0 mg/kg/injection, schedule: Q04DX003 (ip), vehicle: Klucel (hydroxypropylcellulose) (HPC)); 102 % of control under setting [14]; 90 % of control (dose: 200.0 mg/kg/injection, schedule: Q01DX009 (ip), vehicle: saline sonified). The T/C by setting is: (dose: 200.0 mg/kg/injection, schedule: Q04DX003 (ip), vehicle: Klucel (hydroxypropylcellulose) (HPC)) 113 % of control; under setting [15], 113 % of control; (dose: 400.0 mg/kg/injection, schedule: Q01DX009 (ip), vehicle: saline sonified) 113 % of control; (dose: 400.0 mg/kg/injection, schedule: Q04DX003 (ip), vehicle: Klucel (hydroxypropylcellulose) (HPC)) 124 % of control.

`CCOC(=O)CNC(=O)C(=[N+]=[N-])C(=O)COc1ccc(F)cc1`: the T/C by setting is: under setting [7], 104 % of control; under setting [8], 95 % of control; under setting [9], 101 % of control; under setting [10], 90 % of control.

Regarding `CC(=O)OC1COC(NC(=O)N(CCCl)N=O)C(OC(C)=O)C1OC(C)=O` (configuration not stated), the T/C was 211 % of control (dose: 9.0 mg/kg/injection, schedule: Q01DX001 (ip), vehicle: saline with Tween-80); 284 % of control (dose: 13.0 mg/kg/injection, schedule: Q01DX001 (ip), vehicle: saline with Tween-80); 459 % of control (dose: 20.0 mg/kg/injection, schedule: Q01DX001 (ip), vehicle: saline with Tween-80); 294 % of control (dose: 30.0 mg/kg/injection, schedule: Q01DX001 (ip), vehicle: saline with Tween-80).

As to `N#CC(c1ccc(Cl)cc1)c1ccc(N(CCO)CCO)cc1` (configuration not stated), the T/C under setting [13] is 99 % of control; the T/C (dose: 100.0 mg/kg/injection, schedule: Q04DX003 (ip), vehicle: acetone) is 103 % of control; the T/C under setting [14] was 99 % of control; the T/C (dose: 200.0 mg/kg/injection, schedule: Q04DX003 (ip), vehicle: acetone) is 97 % of control; the T/C under setting [15] is 86 % of control; the T/C (dose: 400.0 mg/kg/injection, schedule: Q04DX003 (ip), vehicle: acetone) was 91 % of control.

In the case of `COc1ccccc1CC(C)N` (configuration not stated), the T/C (dose: 5.0 mg/kg/injection, schedule: Q01DX001 (ip), vehicle: saline) was 100 % of control; the T/C (dose: 10.0 mg/kg/injection, schedule: Q01DX001 (ip), vehicle: saline) is 102 % of control; the T/C (dose: 20.0 mg/kg/injection, schedule: Q01DX001 (ip), vehicle: saline) was 102 % of control; the T/C (dose: 20.0 mg/kg/injection, schedule: Q01DX009 (ip), vehicle: saline) is 106 % of control; the T/C (dose: 40.0 mg/kg/injection, schedule: Q01DX001 (ip), vehicle: saline) was 96 % of control; the T/C (dose: 40.0 mg/kg/injection, schedule: Q01DX009 (ip), vehicle: saline) was 97 % of control. For the same compound, the T/C was 111 % of control (dose: 80.0 mg/kg/injection, schedule: Q01DX009 (ip), vehicle: saline) and 103 % of control under setting [13].

Regarding `O=C(COc1ccc(Cl)c(Cl)c1)NCc1ccc[n+](Cc2ccc(S(=O)(=O)F)cc2Cl)c1`, the T/C was 109 % of control (dose: 25.0 mg/kg/injection, schedule: Q04DX003 (ip), vehicle: saline with Tween-80); 101 % of control (dose: 50.0 mg/kg/injection, schedule: Q04DX003 (ip), vehicle: saline with Tween-80); 86 % of control under setting [1].
